Measurements taken from patent publication US20250090510A1, “eIF4G1-eIF1 INHIBITORS AND USE THEREOF” (YEDA RESEARCH AND DEVELOPMENT CO. LTD., priority 2022, published 2025).

Key:
[1] = target: T1, eIF1 (Homo sapiens, UniProt P41567); assay: Intrinsic fluorescence of His-eIF1; assay type: binding; conditions: 0-256 μM, 5 minutes
T1 construct: made in house; host or cells: E. coli BL21
Text: FIGS. 1A-G: Identification and initial characterization of eIF1-eIF4G1 inhibitors using a high-throughput drug screen (HTS). (1A) A flowchart describing the steps of the recombinant eIF1-eIF4G1 split-RL HTS. (1B) Selection of drugs that inhibit leaky scanning. HEK293T cells were transfected with a short 5′UTR bearing GFP reporter gene described on the top, treated with the indicated HTS hits, and then analyzed by western blot with GFP antibody. US and DS denote upstream and downstream AUG initiation sites, respectively. (1C) A graph showing the change in the ratio of the upstream and downstream AUG following treatment with the indicated drugs. (1D) The chemical structure of the eIF1-eIF4G1 inhibitors, i14G1-10 and i14G1-12. (1E) His-tagged eIF4G1 and His-tagged eIF1 were expressed in BL21 bacteria and purified using nickel NTA beads. Purified His-tagged eIF4G1 and His-tagged eIF1 were incubated with the indicated doses of either i14G1-10 (0-256 μM) or i14G1-12 (0-256 μM) for 5 minutes, followed by fluorescence measurement. […] IC50 was calculated using Graphpad prism 9. […]
Intrinsic fluorescence of His-eIF1 and His-eIF4G1. […] After 5 minutes, fluorescence (280/350) was measured on Cytation 5 multi-mode reader (Biotek). The fluorescence intensity values corresponding to respective concentration in both i14G1-10 and i14G1-12 treatments were plotted and IC50 was calculated using GraphPad Prism 9.0. […]

[2] = tested on: HEK293T cells; assay: Cell cycle analysis, propidium iodide flow cytometry; assay type: cell-based, human; conditions: i14G1-10 20 uM, 16 hours; for cells in S phase / sub-G1 dead cells: i14G1-12 1 uM
Description: FIGS. 3A-F: i14G1-10 and i14G1-12 inhibit mRNA translation and sensitize cell survival of eIF4G1 and eIF1 depleted cells. (3A) In-vitro translation using rabbit reticulocyte lysate which was pre-incubated with different concentrations of i14G1-10 or i14G1-12 for 10 minutes followed by the addition of capped firefly luciferase mRNA. After 90 minutes at 30° C., the luminescence signal was measured and the IC50 was calculated. The data represents mean±SEM of 6 independent repeats. (3B) HEK293T cells were treated with DMSO (vehicle control), and sub-cytotoxic concentrations of i14G1-10 (20 μM) and i14G1-12 (10 μM) for 3h. Cell lysates were then subjected to sucrose gradient sedimentation to obtain polysome profiles. (3C) HEK293T cells were treated with the indicated concentrations of i14G1-10 and i14G-12 for 3 h, followed by the addition of puromycin (10 μg/ml) for 5 minutes, after which cells were lysed and analyzed by western blot using an anti-puromycin antibody and anti-GAPDH antibody that serves as a loading control. The graph represents the mean±SEM chemiluminescence signal intensity of puromycin labeling normalized to GAPDH of 3 independent experiments. The calculated IC-50 is shown. (3D) HEK293T cells were transfected with either control or eIF4G1 siRNA in the absence or presence of eIF4G1 expression plasmid. As the eIF4G1 siRNA pool is directed against the 3′UTR, which is absent from the eIF4G1 expression plasmid, the exogenous eIF4G1 is resistant to the siRNA. 48 h after transfection, cells were treated with the indicated concentrations of i14G1-10 and i14G-12 for 3 h, followed by a 5 minutes puromycin pulse as described in 3C. The graph represents the mean±SEM chemiluminescence signal intensity of puromycin labeling normalized to GAPDH of 3 independent experiments. The calculated IC-50 is shown. (3E) The graphs represent cell viability of the indicated cell lines in the presence of increasing concentrations of i14G1-10 and i14G1, analyzed by Luminescent Cell Viability Assay. (3F) Pie charts showing the cell cycle distribution of HEK293T cells treated with DMSO, i14G1-10 and i14G1-12.
Cell cycle and cell viability analyses. HEK293T were treated with DMSO, i14G1-10 (20 uM) and i14G1-12 (1 uM) for 16 hours and then were trypsinized, washed twice with ice cold PBS and fixed overnight in 70% ethanol. Then cells were washed twice with ice cold PBS and resuspended in staining buffer (0.1% triton X-100, 2 mg RNase A and […]), and incubated at 37° C. for 15 minutes. Cells were monitored by BC LSRII flow cytometer and data was analyzed using Modfit Lt Software.
This was true in breast cancer (MCF7), lung cancer (A549), colorectal cancer (HCT116), ovarian cancer (OVCAR8) and in a bone cancer sarcoma cell line (U20S). To examine whether the growth defect is associated with cell cycle progression, control and drug treated cells were subjected to DNA staining by propidium iodide and then a flow cytometry analysis to determine their distribution in the sub-G1 (dead cells), G1, S and G2/M phases of the cell cycle.

[3] = Analysis of uptake (intracellular levels) by LC-MS; assay type: in vitro ADME; conditions: for concentration by LC-MS, Media: Media (amount applied)
Description: To determine the intracellular levels of i14G1-10 and i14G1-12, cells treated with these drugs for 3 h were extensively washed and then analyzed by LC-MS. Both compounds were detected within the cells, but the amount of i14G1-12 was substantially lower than the amount that was applied (Table 4).

[4] = cells treated 3 h, extensively washed

T1 sequence (P41567 whole entry): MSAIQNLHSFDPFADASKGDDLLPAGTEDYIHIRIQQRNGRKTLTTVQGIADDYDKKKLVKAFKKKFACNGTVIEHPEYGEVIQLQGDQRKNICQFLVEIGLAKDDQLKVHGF

Compound	IC50 ([1]; excitation 274 nm, emission 304 nm, read-out: IC-50, decrease of eIF1 intrinsic fluorescence)	cells in S phase [2]	sub-G1 dead cells [2]	concentration by LC-MS, Media [3]	concentration by LC-MS, i14G1-10 treated cells [3, 4]	intrinsic fluorescence of eIF1 [1]	cells in G2/M phase of the cell cycle [2]	concentration by LC-MS, i14G1-12 treated cells [3, 4]
Cn1ccnc1S/C(=C/C=C(C#N)C#N)c1ccc(Cl)cc1 [i14G1-12]	54 µM	reduction in S	elevation in sub-G1 dead cells	3300 ng/mL	Not detected	–	–	–
O=C(/C=C/Sc1ccc(C(F)(F)F)cn1)c1ccccc1 [i14G1-10]	–	reduction in S	elevation in sub-G1 dead cells	6200 ng/mL	1130 ± 40 ng/mL	almost unchanged	dramatic accumulation of cells in the G2/M phase	Not detected
